The nature of this data set: in vitro. The following applies: human, hela cells, % viability.

As for `CCOc1cc(C(=O)O)ccc1OCCOc1cccc(C)c1` [CBK299781], the viability at 28.5 h, 10 µM amounted to 91.6%. On the same count and under the same terms, the result for `COc1ccc2[nH]cc(CCNC(=O)c3ccc4nc[nH]c4c3)c2c1` [CBK122714] reads 94.5%; that for `O=C(NC(c1ccccc1)c1ccco1)C1CCN(Cc2cccc(Cl)c2)CC1` (stereo not drawn) [CBK148295], 103%. As to `Cc1cccn2c(=O)cc(CN3CCn4c(nnc4C4CC4)C3)nc12` [CBK305232], the viability at 28.5 h, 10 µM amounted to 102%. In the case of `COc1ccc(C)cc1S(=O)(=O)N(CC(=O)N1CCN(C)CC1)c1cccc(C(F)(F)F)c1` [CBK269355], the viability at 28.5 h, 10 µM turned out to be 96.2%.

Consider `N#C/C(=C\C=C\c1ccc([N+](=O)[O-])cc1)c1nc(-c2cc3cc([N+](=O)[O-])ccc3oc2=O)cs1` [CBK262357], for which the viability at 28.5 h, 10 µM was 93.7%. Turning to `COc1cc(CNc2cc(C(=O)O)ccc2C)cc(Br)c1OC` [CBK269679], the viability at 28.5 h, 10 µM amounted to 95.3%.

For the molecule `Cc1cc(=O)n(CC(=O)N2CCC3(CCCN(C(C)C)C3=O)C2)nc1C` (stereo not drawn) [CBK307482], the viability at 28.5 h, 10 µM amounted to 90%. Still for that read-out and setting: the result for `CC(C)NC(=O)Nc1ccc(C(=O)N(CC#N)C2CC2)cc1` [CBK306120] reads 90.5%; that for `CCCC/C=C/c1cncc(N2CCN(c3ccccn3)CC2)n1` [CBK037276], 117%. Same read-out and setting: the result for `Cc1nc(-c2n[nH]cc2-c2ccccc2F)sc1CCN` [CBK281578] reads 102%; that for `Cc1cc(C)n(CCC(=O)NCC(c2ccccn2)N2CCOCC2)n1` (stereo not drawn) [CBK307396], 105%.

In the case of `CCc1cc(-c2[nH]nc(C)c2Oc2ccc(C(C)C)cc2)c(O)cc1O` [CBK264940], the viability at 28.5 h, 10 µM was 90.7%. Regarding `CN(C(=O)c1cc(S(=O)(=O)N2CCOCC2)ccc1F)C1CCCCC1` [CBK304580], the viability at 28.5 h, 10 µM turned out to be 114%.

In the case of `COc1ccc(S(=O)(=O)NCCSCc2cccc(C)c2)cc1Cl` [CBK268477], the viability at 28.5 h, 10 µM was determined as 100%. As for `CCc1cc(CNS(=O)(=O)Cc2cccc(F)c2)on1` [CBK283061], the viability at 28.5 h, 10 µM was 92.1%.

As to `Cc1ccc(C(=O)NC(CC(C)C)c2nnc3n2CCNCC3)c(F)c1` (stereo not drawn) [CBK306817], the viability at 28.5 h, 10 µM came to 85%. Consider `COCOc1ccc(-c2nccnc2OCCN2C(=O)c3ccccc3C2=O)cc1` [CBK106913], for which the viability at 28.5 h, 10 µM is 111%. On the same count and under the same terms, the result for `O=C1c2cccc3cccc(c23)C(=O)N1CC1CCN(CC(O)COCC2COc3ccccc3O2)CC1` (stereo not drawn) [CBK074412C] reads 100%. Regarding `COc1ccc2c(c1)COC1(CCN(C(=O)NC(=O)c3ccccc3)CC1)O2` [CBK060804], the viability at 28.5 h, 10 µM (bulk resorufin, single well) came out at 95.7%. In the case of `CC(=O)Nc1ccc(-c2cc(-c3ccc(NC(C)=O)cc3)nc(-c3ccc([N+](=O)[O-])cc3)n2)cc1` [CBK261273], the viability at 28.5 h, 10 µM worked out at 91.5%. Consider `CSc1cc(C)c2c(c1)COC1(CCN(C(=O)N[C@@H](C)c3ccccc3)CC1)O2` [CBK060747], for which, where the note is “bulk resorufin, single well”, the viability at 28.5 h, 10 µM amounted to 94.5%.

Consider `CCc1cccc(CC)c1NC(=O)CN(c1cccc(Br)c1)S(C)(=O)=O` [CBK265986], for which the viability at 28.5 h, 10 µM worked out at 84.9%. For `CN(C)C(CNC(=O)Nc1cccc(C(=O)NC2CC2)c1)c1cccs1` (stereo not drawn) [CBK305565], the viability at 28.5 h, 10 µM was determined as 115%.

As for `COc1ccccc1C(=O)N1CCC(C(=O)N(C)C(c2ccccc2)c2ncccc2C)CC1` (stereo not drawn) [CBK060531], the viability at 28.5 h, 10 µM came to 75.4%. For the molecule `O=[N+]([O-])c1cccc(C(Nc2ccccn2)n2cnc3ccccc32)c1` (stereo not drawn) [CBK261145], the viability at 28.5 h, 10 µM turned out to be 87.6%.

As for `Nc1ncc2cc(C(F)(F)F)ccc2n1` [CBK100705], the viability at 28.5 h, 10 µM stood at 107%. Consider `COc1ccc(NC(=O)CN2CCN(c3ccccc3OC)CC2)c([N+](=O)[O-])c1` [CBK269188], for which the viability at 28.5 h, 10 µM is 94.7%. As to `COCCNC(=O)C(Cc1ccc(-c2ccc(S(C)(=O)=O)cc2)cc1)C1CCN(C(=O)OC(C)(C)C)CC1` (stereo not drawn) [CBK173129], the viability at 28.5 h, 10 µM was determined as 125%.

For `CN(C)S(=O)(=O)c1ccc2c(c1)nc1n2CCC1` [CBK115558], the viability at 28.5 h, 10 µM worked out at 71.4%. As to `O=C(NC1CCN(CC(F)(F)F)CC1)c1cnc(-c2ccccc2)s1` [CBK305474], the viability at 28.5 h, 10 µM was 98.4%.

Regarding `O=C(CCN1C(=O)c2cccc([N+](=O)[O-])c2C1=O)Nc1ccccc1Cl` [CBK263121], the viability at 28.5 h, 10 µM came out at 91.6%. As to `Oc1cccc(OCCOc2nc3ccccc3nc2N2CCCC2)c1` [CBK115901], the viability at 28.5 h, 10 µM was determined as 84.1%. For the molecule `Cc1nc(C)n(CC2CCCN(Cc3ccccc3C#N)C2)n1` (stereo not drawn) [CBK305085], the viability at 28.5 h, 10 µM turned out to be 98.4%. For the molecule `CN(C)CCN(Cc1ccccc1)C(=O)NCc1cccnc1` [CBK145048], the viability at 28.5 h, 10 µM came to 89.6%.

For `CC(C)C(=O)N1CCC(n2nc(-c3ccco3)ccc2=O)CC1` [CBK284244], the viability at 28.5 h, 10 µM is 83.8%. Regarding `CCCNC(=O)Cn1nc(CC)n2c(cc3sccc32)c1=O` [CBK284030], the viability at 28.5 h, 10 µM amounted to 89.3%. For the molecule `O=C(Nc1ccc2n(c1=O)C[C@H]1C[C@@H]2CN(C(=O)NC2CCCCC2)C1)c1cnccn1` [CBK289076], the viability at 28.5 h, 10 µM is 86.8%.

As for `CCOC(=O)N1CCN(C(C(=O)O)c2c[nH]c3ccc(C)cc23)CC1` (stereo not drawn) [CBK286632], the viability at 28.5 h, 10 µM amounted to 93.1%.

As for `O=C(O)COCC(=O)N1C[C@@H]2OCC(=O)N(Cc3ccccc3)[C@@H]2C1` [CBK289652], the viability at 28.5 h, 10 µM turned out to be 101%. On the same count and under the same terms, the figure for `O=C(Nc1ncccc1O)c1cnc2c(cnn2C2CCCC2)c1` [CBK305246] is 99.9%; for `C/C(=C(/C(=O)N(N)c1nc2ccccc2s1)C(=O)C(F)(F)F)N1CCC(C(N)=O)CC1` [CBK265758] it is 87.7%; for `COc1cccc(OCC(=O)O/N=C(\N)c2ccncc2)c1` [CBK262592] it is 91.6%. Regarding `O=S(=O)(c1ccc(-c2ccc(S(=O)(=O)N3CCCCC3)cc2)cc1)N1CCCCC1` [CBK261257], the viability at 28.5 h, 10 µM was determined as 92.2%. `O=C(Nc1cccc2[nH]ccc12)c1ccc(Br)cc1Cl` [CBK159643]: the viability at 28.5 h, 10 µM is 78.7%. Turning to `Cc1ccc(S(=O)(=O)CCc2noc(-c3n[nH]c4ccccc34)n2)cc1` [CBK288598], the viability at 28.5 h, 10 µM was 104%. Same read-out and setting: the result for `CC1(CNC(=O)c2ccccc2Cn2cccn2)COC1` [CBK281750] reads 89.4%; that for `Cn1nnc2cc(NCC3(CNC(=O)OC(C)(C)C)CC3)ccc21` [CBK304777], 89.1%.

In the case of `CC(=O)NCCn1cc2c(n1)[C@H]1CN(C(=O)c3ccccc3)C[C@H]1C2` [CBK282073], the viability at 28.5 h, 10 µM worked out at 111%.

For the molecule `O=C1Cc2c(ccc3ccccc23)C2(CCN(CCCC(F)(F)F)CC2)N1` [CBK039912], the viability at 28.5 h, 10 µM turned out to be 89.6%. On to `CCOC(=O)c1sc(NCCOc2cccc(C)c2)nc1C` [CBK265574], for which the viability at 28.5 h, 10 µM stood at 85.2%.

Consider `O=C(Nc1ccc(F)cc1)c1sccc1NS(=O)(=O)c1cc(F)c(Br)cc1F` [CBK004586], for which the viability at 28.5 h, 10 µM amounted to 94.4%. Same read-out and setting: the figure for `CN1CCN(C(=O)Cn2c(-c3cccs3)cc3cccnc32)CC1` [CBK282558] is 97%; for `CCC(C)Oc1ccccc1OCCN1C(=O)NC(C)(C)C1=O` (stereo not drawn) [CBK267362] it is 98.5%; for `CC1=CC(C)C(C(=O)O)C(C(=O)NCc2cccnc2)C1` (stereo not drawn) [CBK293964] it is 113%. As to `CC(/C=C1\SC(=S)N(C(Cc2ccccc2)C(=O)O)C1=O)=C\c1ccccc1` (stereo not drawn) [CBK263524], the viability at 28.5 h, 10 µM stood at 91.7%. With `Cc1ccc(C(C)(C)CC(C)NCc2cccc(C(F)(F)F)c2)o1` (stereo not drawn) [CBK262872], the viability at 28.5 h, 10 µM is 95%. Consider `CC(Cn1cccn1)NCC(=O)NC1(C#N)CCCCC1` (stereo not drawn) [CBK304845], for which the viability at 28.5 h, 10 µM was 102%.

Take `Cc1cc(C)c(COc2nccnc2OC2CCN(CCCC#N)CC2)c(C)c1` [CBK161575]: the viability at 28.5 h, 10 µM is 91.6%.

With `CC(=O)N1C[C@H]2CCCN(S(=O)(=O)c3ccc4c(c3)CCC4)[C@H]2C1` [CBK282254], the viability at 28.5 h, 10 µM was 87.5%.

As to `CC(c1ccncc1)N1Cc2cccc(C(=O)O)c2C1=O` (stereo not drawn) [CBK291137], the viability at 28.5 h, 10 µM was found to be 97.4%.

Take `Cc1nc(C2CCCN(C(=O)c3cnn(C)c3)C2)c2sccn12` (stereo not drawn) [CBK285236]: the viability at 28.5 h, 10 µM was 81.4%. With `CC(C)(C)c1ccc(C(=O)N2CCCCC2CO)cc1` (stereo not drawn) [CBK073951], the viability at 28.5 h, 10 µM stood at 86.4%. `CCN(Cc1ccncc1)C(=O)Nc1ccc2[nH]ccc2c1` [CBK155136]: the viability at 28.5 h, 10 µM worked out at 99.5%. Regarding `COc1ccc(Cl)cc1S(=O)(=O)N1CCC(C(=O)O)CC1` [CBK269607], the viability at 28.5 h, 10 µM worked out at 79.1%. For `c1ccc2c(c1)NCC21CCNCC1` [CBK022583], the viability at 28.5 h, 10 µM came to 101%. Regarding `Fc1ccc(COc2ccc3ccccc3c2CNc2nn[nH]n2)cc1` [CBK268211], the viability at 28.5 h, 10 µM amounted to 86.9%. Same read-out and setting: the figure for `Cc1cc(C)c2oc(-c3ccc(C)c(NC(=O)COc4ccccc4C)c3)nc2c1` [CBK263067] is 103%; for `CCN(CC)CCn1c(=N)n(CC(=O)c2ccc(Cl)c(Cl)c2)c2ccccc21` [CBK263455B] it is 91.5%; for `O=C(NCC(O)c1ccccc1)Nc1ccccc1` (stereo not drawn) [CBK057227] it is 95.2%. Consider `NC(=O)CN1CC2(CCN(CCCn3c(=O)[nH]c4ccccc43)CC2)c2ccccc21` [CBK126787], for which the viability at 28.5 h, 10 µM amounted to 89.6%. Regarding `CSc1nnc(CC2CCN(C(=O)c3cc(C)on3)CC2)n1C` [CBK307481], the viability at 28.5 h, 10 µM came out at 108%. As to `Cc1ccsc1C(=O)Nc1ncn(CC(=O)N2CCCCCC2)n1` [CBK304192], the viability at 28.5 h, 10 µM was determined as 92.5%.

For the molecule `CC(=O)Nc1ccc(-c2cncc(N3CCN(CCN4CCCC4)CC3)n2)cc1` [CBK065710], the viability at 28.5 h, 10 µM was 103%.

Regarding `O=[S+]([O-])(c1ccccc1)N1CCC(N(CCc2ccccc2)Cc2ccccc2)CC1` [CBK264617G], the viability at 28.5 h, 10 µM was determined as 102%.

As for `CC(Sc1nc(N)cc(=O)[nH]1)C(=O)Nc1ccc(S(N)(=O)=O)cc1` (stereo not drawn) [CBK266191], the viability at 28.5 h, 10 µM was 110%. For the molecule `C/C(=C/C(=O)NCc1ccc(Cl)cc1)C(=O)O` [CBK286954], the viability at 28.5 h, 10 µM worked out at 105%.

In the case of `Oc1c(C(Nc2cccnc2)c2cccs2)ccc2cccnc12` (stereo not drawn) [CBK268637], the viability at 28.5 h, 10 µM stood at 72.4%.
